Data on 1 compound can be found in US10428140B2, “Anti-EphA4 antibody” (EISAI R&D MANAGEMENT CO., LTD., priority 2015, dated 2019).

The assay concerns the target T1, mouse EphA4 (binding to mouse Ephrin A1) (Mus musculus, UniProt Q03137).
T1 construct: made in house; host or cells: HEK293EBNA cells
Nature of the assay: Mouse EphA4-mouse ligand binding inhibition ELISA (Ephrin A1-Fc). The note with it: mouse Ephrin A1 and Ephrin B2; 0.03-1000 μM. The protocol: Antibody A obtained in Example 1 was evaluated for its inhibitory activity against the binding between mouse EphA4 and its mouse ligand according to the following steps. Each well of a 96-well plate (Nunc) was coated with an anti-alkaline phosphatase antibody (Thermo Fisher Scientific). After incubation overnight at 4° C., each well was blocked with 1% BlockAce (DS Pharma Biomedical) at room temperature for 1 hour. After washing with 0.05% Tween 20/PBS (Thermo Fisher Scientific) three times, the mouse EphA4 extracellular region-SEAP-His protein obtained by the method of Example 1 was added (final concentration: 10 nM) to each well and incubated at room temperature for 1 hour. After washing three times, ligands and serially diluted antibody A (0, 0.001, 0.003, 0.01, 0.03, 0.1, 0.3, 1,3, 10, 30, 100, 300, and 1000 nM) or a known EphA4 inhibitor KYL peptide (KYLPYWPVLSSL, 0, 0.003, 0.01, 0.03, 0.1, 0.3, 1, 3, 10, 30, and 100 μM, its synthesis was outsourced to Hokkaido System Science) or compound 1 (0, 0.03, 0.1, 0.3, 1,3, 10, 30, 100, 300, and 1000 μM, Formula 1, Matrix Scientific) were added to each well. The ligands used were mouse Ephrin A1-Fc chimera (R&D Systems, final concentration: 20 nM) and mouse Ephrin B2-Fc chimera (R&D Systems, final concentration: 0.6 nM). […] The absorbance at 450 nm was read using a microplate reader (Molecular Devices).

The structures appear in SMILES notation.

T1 sequence (Q03137 with tags, fused parts or gaps): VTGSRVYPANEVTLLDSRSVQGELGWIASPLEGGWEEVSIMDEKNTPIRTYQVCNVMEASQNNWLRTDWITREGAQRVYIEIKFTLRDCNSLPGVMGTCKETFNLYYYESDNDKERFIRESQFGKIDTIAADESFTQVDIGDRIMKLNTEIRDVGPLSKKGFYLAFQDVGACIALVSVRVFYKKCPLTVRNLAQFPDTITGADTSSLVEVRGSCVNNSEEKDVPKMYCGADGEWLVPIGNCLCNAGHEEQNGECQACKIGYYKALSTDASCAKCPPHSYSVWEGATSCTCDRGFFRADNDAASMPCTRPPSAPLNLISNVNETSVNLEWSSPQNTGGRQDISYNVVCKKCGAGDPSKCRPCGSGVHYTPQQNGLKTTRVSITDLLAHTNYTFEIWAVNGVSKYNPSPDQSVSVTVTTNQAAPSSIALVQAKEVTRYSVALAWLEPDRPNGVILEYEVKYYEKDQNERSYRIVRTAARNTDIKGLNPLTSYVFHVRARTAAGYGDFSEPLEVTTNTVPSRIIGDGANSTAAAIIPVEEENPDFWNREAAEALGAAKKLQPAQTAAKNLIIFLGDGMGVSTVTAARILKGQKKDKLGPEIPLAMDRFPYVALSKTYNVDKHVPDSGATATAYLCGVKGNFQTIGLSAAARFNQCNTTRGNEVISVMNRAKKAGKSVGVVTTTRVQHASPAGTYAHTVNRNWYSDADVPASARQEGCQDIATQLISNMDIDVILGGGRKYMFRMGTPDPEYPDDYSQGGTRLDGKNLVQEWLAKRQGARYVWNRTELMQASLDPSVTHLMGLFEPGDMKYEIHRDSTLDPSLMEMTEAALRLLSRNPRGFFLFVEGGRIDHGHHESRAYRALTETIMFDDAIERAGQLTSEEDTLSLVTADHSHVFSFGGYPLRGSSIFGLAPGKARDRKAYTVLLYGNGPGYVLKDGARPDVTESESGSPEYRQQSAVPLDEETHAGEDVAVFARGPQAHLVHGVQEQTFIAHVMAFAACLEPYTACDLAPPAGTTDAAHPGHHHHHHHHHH

For `Cc1ccc(C)n1-c1ccc(C(=O)O)c(O)c1` [Compound 1, reference compound], the “inhibition of binding between mouse EphA4 and mouse ligand (in words)” value was “weaker activity, and no concentration dependence was found”.
